Data on 14 compounds can be found in patent publication US20220153754A1 (JANSSEN SCIENCES IRELAND UNLIMITED COMPANY, priority 2019, published 2022).

This test has as its system HBV. Briefly: HBV replication inhibition assay (BDNA assay). Particulars: Hepatitis B virus, HepG2.2.15, 144 h, HepG2.2.15 cells, incubated with compound for 6 days, encapsidated HBV DNA from supernatant detected by branched DNA QuantiGene assay. Format: cell-based. The protocol: HBV replication inhibition by the disclosed compounds were determined in cells infected or transfected with HBV or cells with stably integrated HBV, such as HepG2.2.15 cells (Sells et al. 1987). In this example, HepG2.2.15 cells were maintained in cell culture medium containing 10% fetal bovine serum (FBS), Geneticin, L-glutamine, penicillin and streptomycin. HepG2.2.15 cells were seeded in 96-well plates at a density of 40,000 cells/well and were treated with serially diluted compounds at a final DMSO concentration of 0.5% either alone or in combination by adding drugs in a checker box format. Cells were incubated with compounds for three days, after which medium was removed and fresh medium containing compounds was added to cells and incubated for another three days. At day 6, supernatant was removed and treated with DNase at 37° C. for 60 minutes, followed by enzyme inactivation at 75° C. for 15 minutes. Encapsidated HBV DNA was released from the virions and covalently linked HBV polymerase by incubating in lysis buffer (Affymetrix QS0010) containing 2.5 μg proteinase K at 50° C. for 40 minutes. HBV DNA was denatured by addition of 0.2 M NaOH and detected using a branched DNA (BDNA) QuantiGene assay kit according to manufacturer recommendation (Affymetrix). HBV DNA levels were also quantified using qPCR, based on amplification of encapsidated HBV DNA extraction with QuickExtraction Solution (Epicentre Biotechnologies) and amplification of HBV DNA using HBV specific PCR probes that can hybridize to HBV DNA and a fluorescently labeled probe for quantitation. In addition, cell viability of HepG2.2.15 cells incubated with test compounds alone or in combination was determined by using CellTitre-Glo reagent according to the manufacturer protocol (Promega). The mean background signal from wells containing only culture medium was subtracted from all other samples, and percent inhibition at each compound concentration was calculated by normalizing to signals from HepG2.2.15 cells treated with 0.5% DMSO using equation E1.
where DMSOave is the mean signal calculated from the wells that were treated with DMSO control (0% inhibition control) and Xi is the signal measured from the individual wells. EC50 values, effective concentrations that achieved 50% inhibitory effect, were determined by non-linear fitting using Graphpad Prism software (San Diego, Calif.) and equation E2.
where Y represents percent inhibition values and X represents the logarithm of compound concentrations.
Selected disclosed compounds were assayed in the HBV replication assay (BDNA assay), as described above, and a representative group of these active compounds is shown in Table 3.
With `Cn1cc2c(n1)-c1c3c(nn1CCC2)CCN(C(=O)Nc1ccc(F)c(Cl)c1)C3` [Example 29, N-(3-Chloro-4-fluorophenyl)-2-methyl-4,5,6,9,10,12-hexahydropyrazolo[3,4-c]pyrido[4′,3′:3,4]pyrazolo[1,5-a]azepine-11(2H)-carboxamide], the EC50 stood at 3.1 µM.
For `C=C1Cc2cnoc2-c2c3c(nn2C1)CCN(C(=O)Nc1ccc(F)c(C#N)c1)C3` [Example 9, N-(3-Cyano-4-fluorophenyl)-5-methylene-5,6,9,10-tetrahydro-4H-isoxazolo[5,4-c]pyrido[4′,3′:3,4]pyrazolo[1,5-a]azepine-11(12H)-carboxamide] the value was 0.8 µM; for `O=C(Nc1ccc(F)c(Cl)c1)N1CCc2nn3c(c2C1)-c1nocc1CCC3` [Example 31, N-(3-Chloro-4-fluorophenyl)-5,6,9,10-tetrahydro-4H-isoxazolo[3,4-c]pyrido[4′,3′:3,4]pyrazolo[1,5-a]azepine-11(12H)-carboxamide], 0.009 µM.
In the case of `O=C(Nc1ccc(F)c(C(F)(F)F)c1)N1CCn2nc3c(c2C1)-c1oncc1CCC3` [Example 34], the EC50 is 0.44 µM.
For `O=C(Nc1ccc(F)c(Cl)c1)N1CCc2nn3c(c2C1)-c1oncc1CCC3` [Example 32, N-(3-Chloro-4-fluorophenyl)-5,6,9,10-tetrahydro-4H-isoxazolo[5,4-c]pyrido[4′,3′:3,4]pyrazolo[1,5-a]azepine-11(12H)-carboxamide] the value was 0.012 µM; for `C=C1Cc2conc2-c2c3c(nn2C1)CCN(C(=O)Nc1ccc(F)c(C#N)c1)C3` [Example 1, N-(3-Cyano-4-fluorophenyl)-5-methylene-5,6,9,10-tetrahydro-4H-isoxazolo[3,4-c]pyrido[4′,3′:3,4]pyrazolo[1,5-a]azepine-11(12H)-carboxamide], 0.064 µM; for `CC1Cc2conc2-c2c3c(nn2C1)CCN(C(=O)Nc1ccc(F)c(C(F)(F)F)c1)C3` (centres unmarked) [Example 12, N-(4-Fluoro-3-(trifluoromethyl)phenyl)-5-methyl-5,6,9,10-tetrahydro-4H-isoxazolo[3,4-c]pyrido[4′,3′:3,4]pyrazolo[1,5-a]azepine-11(12H)-carboxamide], 0.052 µM.
For `C[C@@H]1Cc2nn3c(c2CN1C(=O)Nc1ccc(F)c(C(F)(F)F)c1)-c1ncccc1CCC3` [Example 17, (11R)—N-(4-Fluoro-3-(trifluoromethyl)phenyl)-11-methyl-6,7,10,11-tetrahydro-5H-pyrido[2,3-c]pyrido[4′,3′:3,4]pyrazolo[1,5-a]azepine-12(13H)-carboxamide] the value was 0.22 µM.
Regarding `O=C(Nc1ccc(F)c(Cl)c1)N1CCc2nn3c(c2C1)-c1nncn1CCC3` [Example 20, N-(3-Chloro-4-fluorophenyl)-6,7,10,11-tetrahydro-5H-pyrido[4′,3′:3,4]-pyrazolo[1,5-a][1,2,4]triazolo[3,4-c][1,4]diazepine-12(13H)-carboxamide], the EC50 was 2 µM.
For `CC1Cc2conc2-c2c3c(nn2C1)CCN(C(=O)Nc1ccc(F)c(C#N)c1)C3` (centres unmarked) [Example 13, N-(3-Cyano-4-fluorophenyl)-5-methyl-5,6,9,10-tetrahydro-4H-isoxazolo[3,4-c]pyrido[4′,3′:3,4]pyrazolo[1,5-a]azepine-11(12H)-carboxamide] the value was 0.052 µM; for `N#Cc1cc(NC(=O)N2CCc3nn4c(c3C2)-c2nnccc2CCC4)ccc1F` [Example 24, N-(3-Cyano-4-fluorophenyl)-6,7,10,11-tetrahydro-5H-pyridazino[3,4-c]pyrido[4′,3′:3,4]pyrazolo[1,5-a]azepine-12(13H)-carboxamide], 0.91 µM; for `N#Cc1cc(NC(=O)N2CCc3nn4c(c3C2)-c2ncccc2CCC4)ccc1F` [Example 27, N-(3-Cyano-4-fluorophenyl)-6,7,10,11-tetrahydro-5H-pyrido[2,3-c]pyrido[4′,3′:3,4]pyrazolo[1,5-a]azepine-12(13H)-carboxamide], 0.17 µM.
As for `C[C@@H]1Cc2nn3c(c2CN1C(=O)Nc1ccc(F)c(C#N)c1)-c1nocc1CCC3` [Example 18, (10R)—N-(3-Cyano-4-fluorophenyl)-10-methyl-5,6,9,10-tetrahydro-4H-isoxazolo[3,4-c]pyrido[4′,3′:3,4]pyrazolo[1,5-a]azepine-11(12H)-carboxamide], the EC50 was 0.015 µM.
For `C[C@@H]1Cc2nn3c(c2CN1C(=O)Nc1ccc(F)c(C(F)(F)F)c1)-c1nocc1CCC3` [Example 19, (10R)—N-(4-Fluoro-3-(trifluoromethyl)phenyl)-10-methyl-5,6,9,10-tetrahydro-4H-isoxazolo[3,4-c]pyrido[4′,3′:3,4]pyrazolo[1,5-a]azepine-11(12H)-carboxamide] the value was 0.027 µM.
